The source of these data is patent US12516038B2, “Inhibitors of antigen presentation by HLA-DR” (Janssen Pharmaceutica NV, priority 2020, dated 2026).

Broadly, the IC50 is the concentration needed to halve the response being measured.

In one assay the target is HLA-DRB1*0401 (Homo sapiens (Human), UniProt P01903+P01911, A100K/A169T/DEL228-266/F76Y/I96L/K127E/L162R/M171V/N62H/P40V/Q125Y/R42H/S133A/S149N/S66Y/V115G/V209L/W38E). Nature of the assay: HLA-DR4 HTRF assay. It counts as binding. Conditions: inhibition of loading of Alexa Fluor 647-labeled Cit-CII peptide onto HLA-DR4 (CLIP cleaved). Put shortly:
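HLA-DRB1*04:01 construct (α/β fused to human Fc, CLIP pre-cleaved by HRV3C overnight at 4° C) at 3 nM was preincubated 45 min with compound and 1 nM anti-Fc-Tb donor, then 40 nM Alexa647-Cit-CII1236-1249 peptide added. After 90 min at 37° C, the 665/620 nm HTRF ratio gave % inhibition; IC50 by nonlinear regression.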
On the technique in general: Time-resolved FRET reads energy transfer from a long-lived donor to a nearby acceptor.

Assay [1] has as its system human peripheral blood CD4+ helper T cells. Nature of the assay: Pan-CD4+ T cell activation (off-target assay). The class given is cell-based. Conditions: anti-CD3/anti-CD28 stimulation, IL-2 production by ELISA. Put shortly:
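IL-2 secretion was measured by ELISA of culture supernatant after 24 h of TCR stimulation. Stimulation used anti-CD3 coated at 1 μg/mL and 1 μg/mL soluble anti-CD28 on human blood CD4+ helper T cells without HLA-DR-expressing APCs, with compound or vehicle present.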
For orientation: An ELISA detects its analyte on a solid surface through an enzyme-linked reagent.

The test system of assay [2] is HLA-DR4 restricted mouse T cell hybridoma line (DR4.CII.36.8) with HLA-DRB1*04:01-expressing Boleth cells. As to the kind of experiment: HLA-DR4-restricted peptide-specific T cell-based assay (hybridoma assay). Conditions: 6 h, inhibition of IL-2 production, CII259-273 peptide presented by Boleth cells. A digest of the protocol: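 IC50 values derive from 4-parameter logistic fits of IL-2 AlphaLISA signal over 8-point duplicate titrations. Compound and HLA-DRB1*04:01 Boleth APCs were preincubated 1 h, 37° C., before adding CII259-273-restricted DR4.CII.36.8 hybridoma cells with peptide for 6 h at 37° C., in DMEM/1% FCS.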

Take `Cc1c(O[C@@H](c2ccc(Cl)cc2)c2ccc(C(N)=O)nc2)ccc2c1OCCC2=O` (single isomer, unassigned) [Example 64b, (*S)-5-((4-chlorophenyl)((8-methyl-4-oxochroman-7-yl)oxy)methyl)picolinamide]: the IC50 was 1.8 µM at HLA-DRB1*0401; over 15 µM in assay [1] (Homo sapiens, T-cell, 24 h); 4.8 µM in assay [2] (Mus musculus, T-cell).
Take `Cc1c(O[C@@H](c2ccc(C(N)=O)cc2)c2cccc[n+]2[O-])ccc2c1OCCC2=O` (single isomer, unassigned) [Example 65b, (*S)-2-((4-carbamoylphenyl)((8-methyl-4-oxochroman-7-yl)oxy)methyl)pyridine 1-oxide]: the IC50 against HLA-DRB1*0401 came out at 28 µM; in assay [1] (24 hrs), 15 µM; in assay [2], 2 µM.
Take `C[C@H]1CC(=O)c2ccc(O[C@@H](c3ccncc3)c3ccc(C(N)=O)cc3)cc2O1` (single isomer, unassigned) [Example 39c, 4-((*R)—(((*S)-2-Methyl-4-oxochroman-7-yl)oxy)(pyridin-4-yl)methyl)benzamide]: the IC50 on HLA-DRB1*0401 came out at 0.99 µM; in assay [1] (Homo sapiens, T-cell, 24 h), 9.9 µM; in assay [2] (Mus musculus, T-cell), 1.1 µM.
The like results for `N#Cc1ccc([C@@H](Oc2ccc3c(c2)OCCC3=O)c2ccncc2)c2ccccc12` (single isomer, unassigned) [Example 37b, (*S)-4-(((4-oxochroman-7-yl)oxy)(pyridin-4-yl)methyl)-1-naphthonitrile] were, in that order, 24 µM, 9.9 µM and 5.1 µM.
Take `CC(C)c1c(O[C@@H](c2ccncc2)c2ccc(C(N)=O)cc2)ccc2c1OCCC2=O` (single isomer, unassigned) [Example 75a, (*R)-4-(((8-isopropyl-4-oxochroman-7-yl)oxy)(pyridin-4-yl)methyl)benzamide]: the IC50 was 0.6 µM against HLA-DRB1*0401; 4.7 µM in assay [1] (Homo sapiens, T-cell, 24 h); 0.062 µM in assay [2] (Mus musculus, T-cell).
On the same counts, the results for `Cc1c(O[C@@H](c2ccc(F)cc2)c2ccc(C(N)=O)cc2)ccc2c1OCCC2=O` (single isomer, unassigned) [Example 66a, (*R)-4-((4-Fluorophenyl)((8-methyl-4-oxochroman-7-yl)oxy)methyl)benzamide] are 2.7 µM, 4.7 µM and 7.8 µM.
The like results for `CCc1cc2c(cc1O[C@H](c1ccncc1)c1ccc(C(N)=O)cc1)OCCC2=O` (single isomer, unassigned) [Example 74b, (*S)-4-(((6-ethyl-4-oxochroman-7-yl)oxy)(pyridin-4-yl)methyl)benzamide] were, in that order, 0.92 µM, 15 µM and 1.9 µM.
The like results for `NC(=O)c1ccc([C@@H](Oc2ccc3c(c2-c2ccc(-c4ccccc4)cc2)OCCC3=O)c2ccncc2)cc1` (single isomer, unassigned) [Example 79a, (*R)-4-(((8-([1,1′-biphenyl]-4-yl)-4-oxochroman-7-yl)oxy)(pyridin-4-yl)methyl)benzamide] were, in that order, 28 µM, 3.1 µM and 0.47 µM.
On to `O=C1CCOc2cc(OC(c3ccccc3)c3ccncc3)ccc21` (racemic) [Example 114, (R,S)-7-(Phenyl(pyridin-4-yl)methoxy)chroman-4-one], for which the concentration for half-maximal inhibition (IC50) against HLA-DRB1*0401 was 3.4 µM; in assay [1] (Homo sapiens, T-cell, 24 h) it was over 10 µM; in assay [2] (Mus musculus, T-cell), 11 µM.
On the same counts, the results for `Cc1c(O[C@H](c2ccc(C(N)=O)cc2)c2ccc(Cl)cn2)ccc2c1OCCC2=O` (single isomer, unassigned) [Example 62a, (*R)-4-((5-chloropyridin-2-yl)((8-methyl-4-oxochroman-7-yl)oxy)methyl)benzamide] are 1.5 µM, 4.7 µM and 8.5 µM.
On the same counts, the results for `COc1ccc([C@H](Oc2ccc3c(c2)OCCC3=O)c2ccncc2)cc1` (single isomer, unassigned) [Example 12b, (*S)-7-((4-Methoxyphenyl)(pyridin-4-yl)methoxy)chroman-4-one] are 1.7 µM, over 15 µM and 2.9 µM.
On the same counts, the results for `CC(C)c1c(O[C@H](c2ccncc2)c2ccc(C(N)=O)cc2)ccc2c1OCCC2=O` (single isomer, unassigned) [Example 75b, (*S)-4-(((8-isopropyl-4-oxochroman-7-yl)oxy)(pyridin-4-yl)methyl)benzamide] are 0.63 µM, 9.3 µM and 0.18 µM.
For `NC(=O)c1ccc([C@H](Oc2ccc3c(c2)OCCC3=O)c2ccncc2)cc1` (single isomer, unassigned) [Example 11b, (*S)-4-(((4-oxochroman-7-yl)oxy)(pyridin-4-yl)methyl)benzamide], the IC50 on HLA-DRB1*0401 is 0.95 µM; in assay [1] (Homo sapiens, T-cell, 24 h), over 15 µM; in assay [2] (Mus musculus, T-cell), 4.7 µM.
The like results for `Cc1c(O[C@@H](c2ccc(C(N)=O)cc2)c2cccc(C#N)c2)ccc2c1OCCC2=O` (single isomer, unassigned) [Example 60b, (*S)-4-((3-cyanophenyl)((8-methyl-4-oxochroman-7-yl)oxy)methyl)benzamide] were, in that order, 2 µM, 9.9 µM and 2.3 µM.
On the same counts, the results for `COc1cc(O[C@@H](c2ccncc2)c2ccc(C(N)=O)cc2)cc2c1C(=O)CCO2` (single isomer, unassigned) [Example 77a, (*R)-4-(((5-methoxy-4-oxochroman-7-yl)oxy)(pyridin-4-yl)methyl)benzamide] are 1.7 µM, over 15 µM and 9.1 µM.
The like results for `CC[C@@H]1COc2cc(O[C@@H](c3ccncc3)c3ccc(C(N)=O)cc3)ccc2C1=O` (single isomer, unassigned) [Example 46a, 4-((*R)—(((*R)-3-ethyl-4-oxochroman-7-yl)oxy)(pyridin-4-yl)methyl)benzamide] were, in that order, 0.97 µM, over 15 µM and 1.5 µM.
Consider `Cc1c(O[C@H](c2ccncc2)c2ccc(C(N)=O)cc2)c(F)cc2c1OCCC2=O` (single isomer, unassigned) [Example 58b, (*S)-4-(((6-fluoro-8-methyl-4-oxochroman-7-yl)oxy)(pyridin-4-yl)methyl)benzamide], for which the IC50 stood at 0.73 µM at HLA-DRB1*0401; 9.9 µM in assay [1] (Homo sapiens, T-cell, 24 h); 2.6 µM in assay [2] (Mus musculus, T-cell).
Take `O=C1CCOc2cc(O[C@@H](c3ccccc3)c3ccncc3)ccc21` (single isomer, unassigned) [Example 114b, (*S)-7-(phenyl(pyridin-4-yl)methoxy)chroman-4-one]: the IC50 on HLA-DRB1*0401 turned out to be 1.3 µM; in assay [1] (Homo sapiens, T-cell, 24 h), 4.7 µM; in assay [2] (Mus musculus, T-cell), 3 µM.
On the same counts, the results for `Cc1c(O[C@@H](c2ccc(Cl)cc2)c2ccc(C(N)=O)cc2)ccc2c1OCCC2=O` (single isomer, unassigned) [Example 57a, (*R)-4-((4-chlorophenyl)((8-methyl-4-oxochroman-7-yl)oxy)methyl)benzamide] are 2.3 µM, over 15 µM and 4.8 µM.
On the same counts, the results for `CC[C@H]1CC(=O)c2ccc(OCc3ccnc(C)c3)cc2O1` (single isomer, unassigned) [Example 118b, (*S)-2-ethyl-7-((2-methylpyridin-4-yl)methoxy)chroman-4-one] are 0.99 µM, over 15 µM and 12 µM.
Turning to `Cc1c(O[C@@H](c2ccncc2)c2ccc(C(N)=O)cc2)ccc2c1OCCC2=O` (single isomer, unassigned) [Example 48b, (*S)-4-(((8-methyl-4-oxochroman-7-yl)oxy)(pyridin-4-yl)methyl)benzamide], the IC50 on HLA-DRB1*0401 was 0.69 µM; in assay [1] (24 hrs), over 15 µM; in assay [2], 1.1 µM.
Turning to `N#Cc1ccc([C@@H](Oc2ccc3c(c2)OCCC3=O)c2ccncc2)cc1` (single isomer, unassigned) [Example 10a, (*R)-4-(((4-oxochroman-7-yl)oxy)(pyridin-4-yl)methyl)benzonitrile], the IC50 is 0.95 µM at HLA-DRB1*0401; over 15 µM in assay [1] (Homo sapiens, T-cell, 24 h); 4.9 µM in assay [2] (Mus musculus, T-cell).
The like results for `NC(=O)c1ccc([C@@H](Oc2ccc3c(c2)OCC(c2ccccc2)C3=O)c2ccncc2)cc1` (stereo in doubt) [Example 47, 4-((1*R)-((4-Oxo-3-phenylchroman-7-yl)oxy)(pyridin-4-yl)methyl)benzamide] were, in that order, 6.5 µM, 9.9 µM and 0.6 µM.
